Experimental data reported in patent US8106092B2, “Treatment of solid cancers” (priority 2004, dated 2012).

What was measured:
Assay type in all cases: in vivo, C57BL/6 mice
Lewis lung-OVA tumors = assay: Topical PEP005 treatment of Lewis lung-OVA tumors: tumor growth and SIINFEKL-specific CD8+ T-cell ELISPOT
Method: B16 and B16 cells stably expressing ovalbumin (B16-OVA)were grown s.c. in C57BL/6 mice as described previously (Ogbourne et al, Cancer Res 64:2833-2839, 2004; Anraku et al, J Virol 76:3791-3799, 2002). Lung metastases were established as described (Zeh et al, J Immunol 162:989-994, 1999). Lewis lung-OVA (Nelson et al, J Immunol 166:5557-5566, 2001) were grown s.c. in C57BL/6 as described (Lenarczyk et al, Vaccine 22:963-974, 2004).
Tumors were treated by topical or intratumoral (i.t.) injection (using a 26 gauge needle) of (i) PEP0005 dissolved in acetone and then RPMI 1640 (final concentration of acetone 4%), or (ii) PEP005 formulated in PEG400.
Mouse splenocytes were analyzed by ex vivo IFNγ ELISPOT essentially as described previously (Le et al, Vaccine 19:4669-4675, 2001), but using MultiScreen-IP plates (Millipore) and 25 IU/ml of recombinant human IL-2 (Cetus).
Lewis lung-OVA tumors were established on five C57/B16 mice; when they had reached 10-20 mm^2, they were treated topically with PEP005. […] A parallel group of tumor-bearing mice (M7-12) were treated (vehicle only) and grew rapidly as expected with mean size±SD shown (FIG. 2, V(M7-12)). […] The sensitivity of this assay is about five spots per 10^6 splenocytes. […] Thus, again PEP005 treatment was associated with induction of anti-cancer CD8^+ T-cells.

B16 tumors [1] = assay: B16-specific antibody responses by ELISA after PEP005 treatment of B16 tumors; conditions: as early as d11; exceeding untreated animals with large tumor burdens, p=0.045 at 1/100 dilution
Method: FIG. 15 is a graphical representation showing antibody responses following PEP005 treatment of B16 tumors. B16 tumors growing on C57BL/6 mice were cured with PEP005 treatment after they had reached 30-60 mm^3, (one tumor per mouse) and B16-specific antibody titers were measured by standard ELISA on blood taken d11 post treatment initiation (n=6) (▪) or d135 post treatment initiation (n=5) (▴). Antibody titers for untreated animals whose tumors had reached 121.5±SD 20.1 (n=4) by d11 are also shown (X). Naïve mice (n=5) received no tumors (i).
Anti-tumor antibodies are known to have anti-cancer activity. […] B16 cells (10^6) were injected s.c. (1 tumor/mouse) into the flanks of female, 6-10 week-old mice and when tumors had reached ≈30-60 mm^3 they were treated with PEP005 as above. On d11 and 135 serum was taken and analyzed by ELISA for antibodies specific for B16. A group of B16 bearing animals which were not treated with PEP005 and a naïve group were also included. B16 cells were sonicated in carbonate buffer 9pH=9) and absorbed onto Immuno Maxisorp 96 well plates (Nunc) overnight and dried. The plates were blocked with 5% v/v FBS, 0.01% v/v Tween in PBS for 1 hour at 37° C. […]

B16 tumors [2] = assay: PEP005-mediated cure of primaries plus DC therapy, growth of secondary tumors, B16 model; conditions: DC p=0.009
Method: FIGS. 13A to C are graphical representations showing synergistic effects between PEP005-mediated cure of primaries and DC therapy on the growth of secondary tumors and on CD8^+ T-cell induction. (A) On d−3 C57BL/6 mice where inoculated with 2×10^6 B16-OVA cells on the right flank (primary tumor) and 2×10^4 B16-OVA cells on the left flank (secondary tumor). On d0 and d1 the primary B16-OVA tumors, which has reach 30.4 mm^2+SD6 were cured with i.t. injections of 25 μg of PEP005 formulated in PEG400. On d4 and d11 mice received DC therapy using DC2.4 cells pulsed with SVYDFFVWL [SEQ ID NO:1], KVPRNQDWL [SEQ ID NO:4] and SIINFEKL [SEQ ID NO:2] peptides, and ovalbumin (n=12, PEP005+DC). […] A third group was inoculated with secondary tumors only and received the DC therapy (n=14, DC), and the control group was given only secondary tumors and received no treatment (n=18, Control). Animals were culled when the secondary tumors reached 100 mm^2. (B) The experiment in (A) was repeated in the B16 model (n=6 per group). On d−2 C57BL/6 mice were inoculated with 10^6 B16 cells on the right flank (primary tumor) and 5×10^4 cells on the left flank (secondary tumors). […] Animal groups were established and treated as in (A) except that on d12 mice were sacrificed and splenocytes analyzed in an ex vivo ELISPOT assay for responses to SVYDFFVWL [SEQ ID NO:1], KVPRNQDWL [SEQ ID NO:4] and SIINFEKL [SEQ ID NO:2] […]

[3] = topical PEP005, tumors 10-20 mm^2 at treatment

Structure (SMILES): C/C=C(/C)C(=O)O[C@H]1C(C)=C[C@]23C(=O)[C@@H](C=C(CO)[C@@H](O)[C@]12O)[C@H]1[C@@H](C[C@H]3C)C1(C)C [PEP005, ingenol-3-angelate]
- SIINFEKL-specific CD8+ T-cell responses (Lewis lung-OVA tumors; animals with Lewis lung-OVA tumors treated topically with PEP005): a range of responses that correlated with the effectiveness of the treatment
- SIINFEKL-specific CD8+ T-cell responses, mean ± SD for all mice (Lewis lung-OVA tumors; topical PEP005, mice without tumors, assay sensitivity about five spots): 6.3±9.8 spots per 10^6 splenocytes
- animals showing a limited response of five treated (Lewis lung-OVA tumors; [3]): two
- animals showing a partial response of five treated (Lewis lung-OVA tumors; [3]): two
- tumors cured of the five tumors treated (Lewis lung-OVA tumors; [3]): one
- B16-specific antibody responses (ELISA) (B16 tumors [1]): clearly detectable antibody responses
- growth of secondaries vs no treatment controls (B16 tumors [2]): did not provide a significant delay of tumor growth
